Measured values taken from patent US4555403A, “Pharmacologically active peptides and medicaments containing the same” (priority 1979, dated 1985).
Non-standard residues stand in square brackets, D forms with d. Residues, ends and D or L forms follow the SMILES beside them.

How the values were obtained:
[1] = stability of opiate-like activity upon incubation with rat brain homogenate and brain-supernate; assay type: in vitro ADME; settings: for opiate-like activity after 30 minutes of incubation / opiate-like activity after 120 minutes of incubation: brain homogenate and brain-supernate, 37° C.
Method: All incubations of the substances with brain homogenate and brain-supernate take place at 37° C. The respective incubation time is terminated by heating for 10 min. at a temperature of 95° C. This heating up to 95° C. serves to destroy enzymes which are still present and which might be detrimental for the biological procedure for proving the opiate-like activity.
1-2 mg each of the β-casomorphin-5 and of the D-Ala^2 -β-casomorphin-5 according to the invention are put into 50 μl of H2 O and mixed with 300 μl each of brain homogenate and brain-supernate. A sample of each is immediately heated from 37° C. up to 95° C. prior to the incubation. Thus these samples are in contact with the active enzymes only for a very short time and their content of opiate-like activity serves as a reference value at a zero point of time.
After 15, 30, 60, and 120 min. each, further samples of the two incubated opiates are taken from the incubator and heated up to 95° C.
The guinea pig intestine test described by Kosterlitz et al supra, serves as a proving system, which also includes the opiate amounts quantitatively. […]

[2] = stability of opiate-like activity towards rat blood plasma; assay type: in vitro ADME; settings: for stability of opiate-like activity towards blood plasma: 300 μl freshly obtained rat blood plasma, 30 minutes stated for β-casomorphin-5
Method: Analogously to the above-mentioned incubation example we tested the stability of the opiate-like activity towards blood plasma. Instead of 300 μl of homogenate, we employed 300 μl of freshly obtained rat blood plasma.

[3] = 0.35 μmol into the ventricle system of the brain, rats; cited from earlier work
[4] = analgetic effect after parenteral or oral application in rats; assay type: in vivo; settings: up to 150 mg per kg of body weight
Method: The dose in these tests amounted up to 150 mg per kg of body weight of the rats. This disadvantage of the known peptides can be partially or completely attributed to inactivation of the substance in the blood and/or the brain.

Compound	opiate-like activity after 30 minutes of incubation [1]	opiate-like activity after 120 minutes of incubation [1]	stability of opiate-like activity towards blood plasma [2]	incubation period after which opiate-like activity disappears ([1]; rat brain homogenate)	opiate-like analgesia [3]	time after which analgesia completely disappeared [3]	time to maximum effectiveness of analgesia [3]	incubation period after which opiate-like activity disappears ([2]; blood plasma)	analgetic effect [4]
COC(=O)CNC(=O)[C@@H]1CCCN1C(=O)[C@H](Cc1ccccc1)NC(=O)[C@@H](C)NC(=O)[C@@H](N)Cc1ccc(O)cc1 [D-Ala^2 -β-casomorphin-5, Tyr-D-Ala-Phe-Pro-Gly-methylester] (H-Y[dA]FPG-OMe)	still could be proven	still could be proven	retained its full activity	–	–	–	–	–	–
COC(=O)CNC(=O)[C@@H]1CCCN1C(=O)[C@H](Cc1ccccc1)NC(=O)[C@@H](CCCNC(=N)N)NC(=O)[C@@H](N)Cc1ccc(O)cc1 [D-Arg^2 -β-casomorphin-5, Tyr-D-Arg-Phe-Pro-Gly-methylester] (H-Y[dR]FPG-OMe)	still could be proven	still could be proven	–	–	–	–	–	–	–
COC(=O)CNC(=O)[C@@H]1CCCN1C(=O)[C@H](Cc1ccccc1)NC(=O)[C@@H](CCSC)NC(=O)[C@@H](N)Cc1ccc(O)cc1 [D-Met^2 -β-casomorphin-5, Tyr-D-Met-Phe-Pro-Gly-methylester] (H-Y[dM]FPG-OMe)	still could be proven	still could be proven	–	–	–	–	–	–	–
COC(=O)CNC(=O)[C@@H]1CCCN1C(=O)[C@H](Cc1ccccc1)NC(=O)[C@@H](CO)NC(=O)[C@@H](N)Cc1ccc(O)cc1 [D-Ser^2 -β-casomorphin-5, Tyr-D-Ser-Phe-Pro-Gly-methylester] (H-Y[dS]FPG-OMe)	still could be proven	still could be proven	–	–	–	–	–	–	–
Tyr-Pro-Phe-Pro-Gly (YPFPG; printed: Tyr-Pro-Phe-Pro-Gly) [β-casomorphin-5]	did not show any opiate-like activity any longer	–	already destroyed	15 min	strong opiate-like analgesia	60 min	≤ 10 min	15 min	does not show any analgetic effect
